Experimental data: patent publication US7662388B2, “Endogenous peptide and active subfragments thereof” (Innoventus Project AB, priority 2003, dated 2010)

Experiments:
[1] = system: Primary bovine adrenal cortex capillary endothelial (BCE) cells; assay: chemotaxis assay of synthetic peptides (Table 2); assay type: cell-based; conditions: for Inhibition of chemotaxis: 100 ng/ml peptide, FGF-2 10 ng/ml, BCE cells, 5 h; for inhibition of chemotaxis, stated in words: chemotaxis assay of table 2
Protocol: Synthetic peptides were produced by Multiple Peptide Systems, San Diego Calif., USA, and dissolved in 1 mM ZnCl2/0.5xPBS at a stock concentration of 1 mg/ml. The sequences of the peptides were as follows:
A migration assay was performed in a modified Boyden chamber as described earlier (Auerbach et al., 1991) using micropore polycarbonate filters (8 μm thick, 8 μm pore) coated with type-1 collagen solution at 100 μg/ml (Vitrogen 100, Collagen Corp). Primary bovine adrenal cortex capillary endothelial (BCE) cells were trypsinized and resuspended at a concentration of 7.5×10^5 cells/ml in Dulbecco's modified essential medium (Invitrogen) containing 0.25% BSA and Trasylol at 1000 KIE. The cell suspension was placed in the upper chamber. In the lower chamber below the filter was placed medium containing 0.25% BSA and when indicated, 10 ng/ml fibroblast growth factor (FGF-2; Peprotech). Recombinant HRGP produced in 293 cells, alternatively, synthetic peptides, all at a final concentration of 100 ng/ml (or as indicated), was placed in both chambers either alone or in combination with FGF-2. After 5 h at 37° C., the medium was removed and cells sticking to the filter were fixed in pure methanol and stained with Giemsa stain. The number of cells on the lower side of the filter was counted using an image analysis software (Easy Image Analysis) from TeknoOptik, Sweden. All samples were analyzed in series of at least six parallel wells for each treatment.

primary BCE cells = assay: chemotaxis (migration) assay in modified Boyden chamber, BCE cells; assay type: cell-based, bovine; conditions: 100 ng/ml protein, FGF-2 5 ng/ml, 5 h
Protocol: The porcine aortic endothelial (PAE) cell line overexpressing FGF receptor-1 (FGFR-1) (Wennström et al 1992) was cultured in Ham's F12/10% fetal bovine serum (FCS) and NIH 3T3 murine fibroblasts were cultured in Dulbecco's modified medium (DMEM)/10% newborn calf serum (NCS). F12, DMEM and serum were bought from Life Technologies. Primary bovine adrenal cortex capillary endothelial (BCE) cells were cultured on gelatin-coated dishes in DMEM/10% NCS and 2 ng/ml FGF-2 (Boehringer Mannheim). For chemotaxis assays, both PAE and NIH 3T3 cells were serum-starved over night in 0.1% BSA and BCE cells in 0.5% NCS. Human embryonic kidney (HEK) 293-EBNA cells were cultured in DMEM/10% FCS. Approximately every second month they were given 0.25 mg/ml G418 (Calbiochem) to ensure positive selection of the EBNA-1 expressing cells.
(§1) A migration assay was performed in a modified Boyden chamber as described earlier (Auerbach et al., 1991) using micropore polycarbonate filters (8 μm thick, 8 μm pore) coated with type-1 collagen solution at 100 μg/ml (Vitrogen 100, Collagen Corp). BCE, PAE/FGFR-1 or NIH 3T3 cells were preincubated or not with HRGP (100 ng/ml) for 30 min, trypsinised and resuspended at a concentration of 7.5×10^5 cells/ml in Dulbecco's modified essential medium (Invitrogen) containing 0.25% BSA and Trasylol at 1000 KIE. FGF-2 and VEGF-A was used at 5 ng/ml, HRGP and the protein C inhibitor (PCI) at 100 ng/ml and BSA at 0.25%. After 5 h at 37° C., migrated cells were stained with Giemsa and counted using an image analysis software (Easy Image Analysis) from Tekno Optik AB, Sweden. All samples were analysed in at least six parallel wells for each treatment.

T241 fibrosarcoma cells = assay: fibrosarcoma tumour growth in mice (HRGP); assay type: in vivo; conditions: 14 days
Protocol: Animal work was carried out at the local animal facility and was approved by the Uppsala University board of animal experimentation and thus performed according to the UKCCCR guidelines for the welfare of animals in experimental neoplasia (Workman et al (1988)). The mice were anesthetized with isoflurane (Forene; Abbott) during all manipulations. Female, 5 week old, C57BL6/1 mice (Mollegard/Bomhultgard, Denmark) were injected with 0.5×10^6 T241 fibrosarcoma cells subcutaneously (s.c.) into the left flank. Animals carrying palpable tumours were randomized (n=7-10 animals/treatment group) and received treatment with vehicle (PBS), 4 mg/kg/day of pHRGP or 5 mg/kg/day of human IgG or His-HRGP, given as daily subcutaneous injections in the right flank. The tumours were measured with a caliper once a day, in a blind procedure, and volumes were calculated by the formula […]. When the tumours reached the upper limit of 2 cm^3, the mice were sacrificed. Three animals in each group were perfused with 4% paraformaldehyde in PBS pH 7.4. Tumours were embedded in paraffin according to standard histological procedures and sectioned at […] thickness.
C57/bl6 mice were inoculated subcutaneously with T241 fibrosarcoma cells on their left flank and when the tumours were palpable (after 4-6 days), a daily treatment was initiated with HRGP or control (PBS; FIG. 2A, or human IgG; FIG. 2B). Endostatin was included in one study for comparison (FIG. 2B). The treatment was given as subcutaneous injections in the right flank until the size of the control tumours reached the upper limit of […] (11 days; FIG. 2A, 14 days; FIG. 2B). Injections with both pHRGP (4 mg/kg/day) and His-HRGP (5 mg/kg/day) led to a drastic reduction in tumour growth and at the time of sacrifice, the size of the tumours was reduced by 67% (FIG. 2A) and 61% (FIG. 2B) respectively, compared to control-treated animals. Endostatin treatment (25 mg/kg/day) lacked significant inhibitory effect on tumour growth in this model (32% decrease).

endothelial cells = assay: chemotaxis of endothelial cells towards FGF-2, truncated HRGP proteins; assay type: cell-based; conditions: recombinant truncated forms of HRGP
Protocol: as §1
To determine which part of HRGP was responsible for the anti-angiogenic effect, recombinant truncated forms of the protein were produced (FIG. 5A). Truncated versions containing the C-terminal part of HRGP, but lacking an intact N-terminus, were not possible to produce, maybe due to instability.

Molecule: KHHSHEQHPHGHHPHAHHPHEHDTHG [Pep 9A]
- Inhibition of chemotaxis [1]: +

Molecule: AHHPHEHDTHRQHPHG [Pep 10]
- Inhibition of chemotaxis [1]: +

Molecule: Ac-EHDTH-NH2 [Pep 15A]
- Inhibition of chemotaxis [1]: +

Molecule: DLHPHKHHSHEQHPHG [Pep 8]
- Inhibition of chemotaxis [1]: − (as compared to Pep 8 and Pep 11A)
- inhibition of chemotaxis, stated in words [1]: not to be effective

Molecule: DLHPHEQHPHEHDTHG [Pep 11A]
- Inhibition of chemotaxis [1]: − (as compared to Pep 8 and Pep 11A)
- inhibition of chemotaxis, stated in words [1]: not to be effective

Molecule: Ac-AHHPHEHDTHRQHPH-NH2 [Pep 12A]
- Inhibition of chemotaxis [1]: +

Molecule: Ac-AHHPHEHDTH-NH2 [Pep 13A]
- Inhibition of chemotaxis [1]: +

B1: PCI: plasma protein of approximately the same mass as HRGP, specificity control (protein, UniProt P05154 26-406, looked up)
Plasma serine protease …: EMKKRVEDLHVGATVAPSSRRDFTFDLYRALASAAPSQSIFFSPVSISMSLAMLSLGAGSSTKMQILEGLGLNLQKSSEKELHRGFQQLLQELNQPRDGFQLSLGNALFTDLVVDLQDTFVSAMKTLYLADTFPTNFRDSAGAMKQINDYVAKQTKGKIVDLLKNLDSNAVVIMVNYIFFKAKWETSFNHKGTQEQDFYVTSETVVRVPMMSREDQYHYLLDRNLSCRVVGVPYQGNATALFILPSEGKMQQVENGLSEKTLRKWLKMFKKRQLELYLPKFSIEGSYQLEKVLPSLGISNVFTSHADLSGISNHSNIQVSEMVHKAVVEVDESGTRAAAATGTIFTFRSARLNSQRLVFNRPFLMFIVDNNILFLGKVNRP
- FGF-2-induced chemotaxis of BCE cells (primary BCE cells): no effect

B2: His-HRGP: recombinant full-length HRGP produced in HEK-293-EBNA cells with a His-tag (protein)
chain: VSPTDCSAVEPEAEKALDLINKRRRDGYLFQLLRIADAHLDRVENTTVYYLVLDVQESDCSVLSRKYWNDCEPPDSRRPSEIVIGQCKVIATRHSHESQDLRVIDFNCTTSSVSSALANTKDSPVLIDFFEDTERYRKQANKALEKYKEENDDFASFRVDRIERVARVRGGEGTGYFVDFSVRNCPRHHFPRHPNVFGFCRADLFYDVEALDLESPKNLVINCEVFDPQEHENINGVPPHLGHPFHWGGHERSSTTKPPFKPHGSRDHHHPHKPHEHGPPPPPDERDHSHGPPLPQGPPPLLPMSCSSCQHATFGTNGAQRHSHNNNSSDLHPHKHHSHEQHPHGHHPHAHHPHEHDTHRQHPHGHHPHGHHPHGHHPHGHHPHGHHPHCHDFQDYGPCDPPPHNQGHCCHGHGPPPGHLRRRGPGKGPRPFHCRQIGSVYRLPPLRKGEVLPLPEANFPSFPLPHHKHPLKPDNQPFPQSVSESCPGKFKSGFPQVSMFFTHTFPK
modifications: left off: small tags and cut ends
notes: recombinant full-length HRGP produced in HEK-293-EBNA cells with a His-tag
- reduction of tumour size compared to control-treated animals at sacrifice (T241 fibrosarcoma cells; 5 mg/kg/day s.c. daily, control human IgG): 61%

B3: Endostatin: anti-angiogenic factor included in one tumour study for comparison (protein, UniProt P39060 1572-1754, looked up)
Endostatin: HSHRDFQPVLHLVALNSPLSGGMRGIRGADFQCFQQARAVGLAGTFRAFLSSRLQDLYSIVRRADRAAVPIVNLKDELLFPSWEALFSGSEGPLKPGARIFSFDGKDVLRHPTWPQKSVWHGSDPNGRRLTESYCETWRTEAPSATGQASSLLGGRLLGQSAASCHHAYIVLCIENSFMTASK
modifications: Endostatin
notes: anti-angiogenic factor included in one tumour study for comparison
- decrease of tumour growth (T241 fibrosarcoma cells; 25 mg/kg/day, comparison): 32%

B4: His 5: recombinant His/Pro-rich domain (central region) of human HRGP (protein, listed as Homo sapiens)
chain: HLGHPFHWGGHERSSTTKPPFKPHGSRDHHHPHKPHEHGPPPPPDERDHSHGPPLPQGPPPLLPMSCSSCQHATFGTNGAQRHSHNNNSSDLHPHKHHSHEQHPHGHHPHAHHPHEHDTHRQHPHGHHPHGHHPHGHHPHGHHPHGHHPHC
- inhibition of chemotaxis of endothelial cells towards FGF-2 (endothelial cells): inhibited chemotaxis
- inhibition of chemotaxis of endothelial cells towards FGF-2 (endothelial cells; listed as central region (His/Pro-rich domain) of human HRGP): inhibited chemotaxis as potently as the mature protein
- inhibition of chemotaxis of endothelial cells towards FGF-2 (endothelial cells; listed as central region of human HRGP): inhibit chemotaxis

B5: His 4: recombinant truncated version of HRGP that covers the complete central region (protein, listed as Homo sapiens)
chain: VSPTDCSAVEPEAEKALDLINKRRRDGYLFQLLRIADAHLDRVENTTVYYLVLDVQESDCSVLSRKYWNDCEPPDSRRPSEIVIGQCKVIATRHSHESQDLRVIDFNCTTSSVSSALANTKDSPVLIDFFEDTERYRKQANKALEKYKEENDDFASFRVDRIERVARVRGGEGTGYFVDFSVRNCPRHHFPRHPNVFGFCRADLFYDVEALDLESPKNLVINCEVFDPQEHENINGVPPHLGHPFHWGGHERSSTTKPPFKPHGSRDHHHPHKPHEHGPPPPPDERDHSHGPPLPQGPPPLLPMSCSSCQHATFGTNGAQRHSHNNNSSDLHPHKHHSHEQHPHGHHPHAHHPHEHDTHRQHPHGHHPHGHHPHGHHPHGHHPHGHHPHC
- inhibition of chemotaxis of endothelial cells towards FGF-2 (endothelial cells): did not inhibit endothelial cell chemotaxis
- inhibition of chemotaxis of endothelial cells towards FGF-2 (endothelial cells; listed as His4): failure of His4 to inhibit endothelial cell chemotaxis
